Reference: US20240262803A1, “COMPOUNDS, COMPOSITIONS AND METHODS OF TREATING DISORDERS” (Chungdu Anticancer Bioscience Ltd, priority 2021, published 2024)
Where two headings read alike, the source gives them in different places.

Experiments:
Assay type in all cases: cell-based
[1] = system: colon cancer cell line HCT116; test: MTT assay of cellular proliferation, HCT116; conditions: Homo sapiens, HCT-116, read-out: EC50: Concentration that inhibits 50% of proliferation
Experimental: (§1) Six lung cancer cell lines (NCI-H23, NCI-H460, NCI-H596, NCI-H2170, Calu-6 and A549), two colon cancer cell lines (HCT116 and SW460), one breast cancer cell line MDA-MB-231, one gastric cancer cell line NCI-N87, one prostate cancer cell line DU145, one cervical cancer cell line Hela, and one glioblastoma cell line T98G were obtained from ATCC. The T2 HCC cell line was derived from a mouse liver cancer model initiated by a transgene of MYC (Reference). All cell lines were cultured in DMEM (Gibco, Cleveland, TN, USA) supplemented with 5% fetal bovine serum (Gibco), penicillin (100 U/mL)-streptomycin (100 μg/mL) (Gibco, Cat. No. 15140-122), 2 mM L-glutamine (Gibco, 200 mM solution, Cat. No. 25030081), and 1 mM sodium pyruvate (Gibco, 100 mM solution, Cat. No. 11360070) at 37° C. in a humidified incubator that was maintained at 5% CO2.
(§2) The MTT assay measures cellular metabolic activity as a proxy for cell viability and involves the conversion of the water-soluble yellow dye MTT [3-(4,5-dimethylthiazol-2-yl)-2,5-diphenyltetrazolium bromide] into an insoluble purple formazan by the action of mitochondrial reductase. Formazan is then solubilized and its concentration is determined by measuring the optical density (OD) value at a wavelength of 570 nm. The value is in proportional to the number of live cells with excellent linearity up to ˜10^6 cells per well. The MTT assay was used to determine the EC50 value, the concentration of a compound that leads to 50% inhibition of cellular proliferation. Briefly, cells were split when growing to the mid-Log phase. Cells in 100 μL of culture medium were seeded into each well of 96-well microplates and cultivated for 15˜24 hours to reach a confluence of 20˜30% and were then exposed to drugs at concentrations ranging from 1 nM to 10 μM. At the endpoint, 20 μL of a MTT stock solution in DMSO (5 mg/mL) was added to each well that contains […] of DMEM. The microplates were left in the cell culture incubator for 3˜4 h before subjected to solubilization and determination of formazan at A570 in a microplate reader (BioTek ELX808iu). […] Therefore, these compounds might hold a broad utility in the treatment of a large variety of human malignancies.

[2] = system: lung cancer cell line NCI-H23; test: MTT assay of cellular proliferation, NCI-H23; conditions: Homo sapiens, read-out: EC50: Concentration that inhibits 50% of proliferation
Experimental: as §1, §2

[3] = system: lung cancer cell line A549; test: MTT assay of cellular proliferation, A549; conditions: Homo sapiens, read-out: EC50: Concentration that inhibits 50% of proliferation
Experimental: as §1, §2

[4] = system: colon cancer cell line HCT116; test: Minimal effective concentration that elicits polyploidy, HCT116; conditions: Homo sapiens, HCT-116, read-out: MECP: Minimal effective concentration that elicits polyploidy
[5] = system: lung cancer cell line NCI-H23; test: Minimal effective concentration that elicits polyploidy, NCI-H23; conditions: Homo sapiens, read-out: MECP: Minimal effective concentration that elicits polyploidy
[6] = system: gastric cancer cell line NCI-N87; test: Minimal effective concentration that elicits polyploidy, NCI-N87; conditions: Homo sapiens, read-out: MECP: Minimal effective concentration that elicits polyploidy
[7] = system: cervical cancer cell line Hela; test: MTT assay of cellular proliferation, Hela; conditions: Homo sapiens, read-out: EC50: Concentration that inhibits 50% of proliferation
Experimental: as §1, §2

[8] = system: cervical cancer cell line Hela; test: Minimal effective concentration that elicits polyploidy, Hela; conditions: Homo sapiens, read-out: MECP: Minimal effective concentration that elicits polyploidy
SW480 = test: Minimal effective concentration that elicits polyploidy, SW480; conditions: Homo sapiens, read-out: MECP: Minimal effective concentration that elicits polyploidy
RPEMYC^H2B-GFP cells [9] = test: Mechanism-informed phenotypic screening assay (mitotic arrest, polyploidy; GE IN-Cell Analyzer 2000); conditions: 20 nM to 20 μM, 24, 48 or 72 hours, read-out: Mitotic Arrest (≥5%)
[10] = system: lung cancer cell line A549; test: Minimal effective concentration that elicits polyploidy, A549; conditions: Homo sapiens, read-out: MECP: Minimal effective concentration that elicits polyploidy
[11] = system: liver cancer cell line T2 HCC; test: Minimal effective concentration that elicits polyploidy, T2 HCC; conditions: Mus musculus, read-out: MECP: Minimal effective concentration that elicits polyploidy
[12] = system: liver cancer cell line T2 HCC; test: MTT assay of cellular proliferation, T2 HCC; conditions: Mus musculus, read-out: EC50: Concentration that inhibits 50% of proliferation
Experimental: as §1, §2

RPEMYC^H2B-GFP cells [13] = test: Mechanism-informed phenotypic screening assay (mitotic arrest, polyploidy; GE IN-Cell Analyzer 2000); conditions: 20 nM to 20 μM, 24, 48 or 72 hours, read-out: Min. Effective conc. for polyploidy (≥5%)
Experimental: We have Previously Developed a Mechanism-Informed Phenotypic Screening Assay to identify novel antimitotic agents (Li et al. 2019). Equipped with a prior understanding of the versatile functions of the chromosomal passenger protein (CPP) complex in orchestrating karyokinesis and cytokinesis, the screening assay is to score for phenotypes typically seen when the CPP complex is disabled. Specifically, the parameters for a positive hit are a temporary elevation of mitotic index (MI) at 24 hours of drug treatment and an accumulation of polyploid cells at 48 hours of drug treatment, indicative of mitotic arrest and cytokinetic failure respectively. These parameters exclude compounds that elicit only a prolonged arrest of cells in mitosis, a phenotype typically provoked by spindle toxins. The screening procedure is briefly summarized here. RPEMYC^H2B-GFP cells engineered to express a Histone 2B-EGFP fusion protein were passaged as batches of 96-well plates, 18-24 hours before exposure to the chemical compounds of the present disclosure at concentrations from 20 nM to 20 μM. At 24, 48 or 72 hours after initiation of treatment, cells were analyzed for either an arrest in mitosis or a change in DNA content by GE IN-Cell Analyzer 2000. As set forth in table 2 below, a value of greater than or equal to […] and less than or equal to 1.0 μM is marked e “A”; a value greater than […] and less than or equal to 10.0 μM is marked “B”; a value greater than 10.0 μM and less than or equal to 30.0 μM is marked “C”; and a value greater than 30.0 μM is marked “D.”

[14] = system: gastric cancer cell line NCI-N87; test: MTT assay of cellular proliferation, NCI-N87; conditions: Homo sapiens, read-out: EC50: Concentration that inhibits 50% of proliferation
Experimental: as §1, §2

[15] = system: breast cancer cell line MDA-MB-231; test: MTT assay of cellular proliferation, MDA-MB-231; conditions: Homo sapiens, read-out: EC50: Concentration that inhibits 50% of proliferation
Experimental: as §1, §2

[16] = system: colon cancer cell line SW460; test: MTT assay of cellular proliferation, SW460; conditions: Homo sapiens, SW480; read-out: EC50: Concentration that inhibits 50% of proliferation
Experimental: as §1, §2

[17] = system: breast cancer cell line MDA-MB-231; test: Minimal effective concentration that elicits polyploidy, MDA-MB-231; conditions: Homo sapiens, read-out: MECP: Minimal effective concentration that elicits polyploidy

| EC50 [1] [nM] | EC50 [2] [nM] | EC50 [3] [nM] | EC50 [7] [nM] | EC50 [12] [nM] | EC50 [14] [nM] | EC50 [15] [nM] | EC50 [16] [nM] | SMILES | minimal effective concentration [4] [µM] | minimal effective concentration [5] [µM] | minimal effective concentration [6] [µM] | minimal effective concentration [8] [µM] | minimal effective concentration (SW480) [µM] | minimal effective concentration (RPEMYC^H2B-GFP cells [9]) [µM] | minimal effective concentration [10] [µM] | minimal effective concentration [11] [µM] | minimal effective concentration (RPEMYC^H2B-GFP cells [13]) [µM] | minimal effective concentration [17] [µM] |
| --- | --- | --- | --- | --- | --- | --- | --- | --- | --- | --- | --- | --- | --- | --- | --- | --- | --- | --- |
| 1 to 1000 | 1 to 1000 | 1 to 1000 | 1 to 1000 | 1 to 1000 | 1 to 1000 | 1 to 1000 | 1 to 1000 | COc1cc(OC)cc(Oc2ncccc2-c2ccncc2)c1 [Compound 14, 2-(3,5-dimethoxyphenoxy)-3,4′-bipyridine] | 0.001 to 1 | 0.001 to 1 | 0.001 to 1 | 0.001 to 1 | 0.001 to 1 | 1 | 0.001 to 1 | 0.001 to 1 | 1 | 0.001 to 1 |
| 1 to 1000 | 1 to 1000 | 10000 to 30000 | 1 to 1000 | 1 to 1000 | 1 to 1000 | 1 to 1000 | – | COC(=O)c1cc(OC)cc(Oc2nccnc2-c2ccncc2)c1 [Compound 17] | 0.001 to 1 | 0.001 to 1 | 0.001 to 1 | 0.001 to 1 | – | 1 | 0.001 to 1 | 0.001 to 1 | 1 | 0.001 to 1 |
| 1 to 1000 | 1 to 1000 | 1 to 1000 | 1 to 1000 | 1 to 1000 | 1 to 1000 | 1 to 1000 | 1 to 1000 | CNC(=O)c1cc(Oc2ncccc2-c2ccncc2)cc(OC(F)(F)F)c1 [Compound 7, 3-([3,4′-bipyridin]-2-yloxy)-N-methyl-5-(trifluoromethoxy)benzamide] | 0.001 to 1 | 0.001 to 1 | 0.001 to 1 | 0.001 to 1 | 0.001 to 1 | 1 | 0.001 to 1 | 0.001 to 1 | 1 | 0.001 to 1 |
| 1 to 1000 | 1 to 1000 | 1 to 1000 | 1 to 1000 | 1 to 1000 | 1 to 1000 | 1 to 1000 | 1 to 1000 | CCOc1cc(Oc2ncccc2-c2ccnc(OC)c2)cc(C(=O)NC)c1 [Compound 28, 3-ethoxy-5-((2′-methoxy-[3,4′-bipyridin]-2-yl)oxy)-N-methylbenzamide] | 0.001 to 1 | 0.001 to 1 | 0.001 to 1 | 0.001 to 1 | 0.001 to 1 | 1 | 0.001 to 1 | 0.001 to 1 | 1 | 0.001 to 1 |
| – | – | – | – | – | – | – | – | CNC(=O)c1cc(Oc2ncccc2-c2ccnc(C)c2)cc(-c2cnn(C)c2)c1 [Compound 89, N-methyl-3-(1-methyl-1H-pyrazol-4-yl)-5-((2′-methyl-[3,4′-bipyridin]-2-yl)oxy)benzamide] | – | – | – | – | – | 1 | – | – | 1 | – |
| – | – | – | – | – | – | – | – | CNC(=O)c1cc(Oc2ncccc2-c2ccnc(C)c2)cc(OC2CCOC2)c1 (stereo not shown) [Compound 96, N-methyl-3-((2′-methyl-[3,4′-bipyridin]-2-yl)oxy)-5-((tetrahydrofuran-3-yl)oxy)benzamide] | – | – | – | – | – | 1 | – | – | 1 | – |
| – | – | – | – | – | – | – | – | COc1cc(OC)cc(Oc2ncccc2-c2ccnc(N)c2)c1 [Compound 61, 2-(3,5-dimethoxyphenoxy)-[3,4′-bipyridin]-2′-amine] | – | – | – | – | – | 1 | – | – | 1 | – |
| – | – | – | – | – | – | – | – | COc1cc(Oc2ncccc2-c2ccnc(C)c2)cc(O[C@H]2CCOC2)c1 [Compound 95, (S)-2-(3-methoxy-5-((tetrahydrofuran-3-yl)oxy)phenoxy)-2′-methyl-3,4′-bipyridine] | – | – | – | – | – | 1 | – | – | 1 | – |
| – | – | – | – | – | – | – | – | CCOCCOc1cc(-c2cccnc2Oc2cc(OC)cc(C(=O)NC)c2)ccn1 [Compound 85, 3-((2′-(2-ethoxyethoxy)-[3,4′-bipyridin]-2-yl)oxy)-5-methoxy-N-methylbenzamide] | – | – | – | – | – | 1 | – | – | 1 | – |
| – | – | – | – | – | – | – | – | CNc1cc(-c2cccnc2Oc2cc(OC)cc(OC)c2)ncn1 [Compound 64, 6-(2-(3,5-dimethoxyphenoxy)pyridin-3-yl)-N-methylpyrimidin-4-amine] | – | – | – | – | – | 0.001 to 10 | – | – | 0.001 to 10 | – |
| – | – | – | – | – | – | – | – | COc1cc(OC)cc(Oc2ncccc2-c2ccnc(Cl)n2)c1 [Compound 84, 2-chloro-4-(2-(3,5-dimethoxyphenoxy)pyridin-3-yl)pyrimidine] | – | – | – | – | – | 10 to 30 | – | – | > 30 | – |
| – | – | – | – | – | – | – | – | CCOCCOc1cc(-c2cccnc2Oc2cc(NC(C)=O)cc(OC)c2)ccn1 [Compound 87, N-(3-((2′-(2-ethoxyethoxy)-[3,4′-bipyridin]-2-yl)oxy)-5-methoxyphenyl)acetamide] | – | – | – | – | – | 1 | – | – | 1 | – |
| – | – | – | – | – | – | – | – | COc1cc(OC)cc(Oc2nccnc2-c2ccncc2)c1 [Compound 15, 2-(3,5-dimethoxyphenoxy)-3-(pyridin-4-yl)pyrazine] | – | – | – | – | – | 1 | – | – | 1 | – |
